Data reported in US20260007133A1, “HERBICIDAL COMPOSITION COMPRISING AZINE COMPOUNDS” (BASF SE, priority 2022, published 2026).

Columns and labels:
Assay type in all cases: in vivo
[1] = test system: Abutilon theophrasti; assay: Greenhouse pre-emergence (PRE) herbicidal test on ABUTH
Procedure: (§1) The culture containers used were plastic pots containing loamy sand with approximately 3.0% of humus as substrate. The seeds of the test plants were sown separately for each species.
(§2) The containers were irrigated gently to promote germination and growth and subsequently covered with transparent plastic hoods until the plants had rooted.
(§3) Depending on the species, the plants were kept at 10-25° C. and 20-35° C., respectively.
(§4) The test period extended over 2 to 4 weeks. During this time, the plants were tended and their response to the individual treatments was evaluated.
(§5) Evaluation was carried out using a scale from 0 to 100. 100 means no emergence of the plants, or complete destruction of at least the above-ground parts, and 0 means no damage or normal course of growth. A good herbicidal activity is given at values of at least 70, and very good herbicidal activity is given at values of at least 85.
(§6) As indicated application was either post emergent (POST) at the respective growth stage (GS) of the weed (BBCH code), or pre-emergent (PRE). […]

[2] = test system: Commelina benghalensis; assay: Greenhouse pre-emergence (PRE) herbicidal test on COMBE
Procedure: as §1, §2, §3, §4, §5, §6

[3] = test system: Geranium pusillum; assay: Greenhouse post-emergence (POST) herbicidal test on GERPU; details: Geranium pusillum, post-emergence
Procedure: as §1
(§7) For the post-emergence treatment, the test plants were grown to a plant height of from 3 to 15 cm, depending on the plant habit, and only then treated with the active compounds which had been suspended or emulsified in water. To this end, the test plants were either sown directly, and grown in the same containers, or they were first grown separately as seedlings and transplanted into the test containers a few days prior to treatment.
as §3, §4, §5
(§8) If not stated differently, the respective components A and B, and if appropriate, C were formulated as a 5% by weight strength emulsion concentrate and, with addition of the amount of solvent system, introduced into the spray liquor used for applying the active compound.
as §6

[4] = test system: Digitaria sanguinalis; assay: Greenhouse post-emergence (POST) herbicidal test on DIGSA
Procedure: as §1, §7, §3, §4, §5, §8, §6

[5] = test system: Echinochloa crus-galli; assay: Greenhouse post-emergence (POST) herbicidal test on ECHCG
Procedure: as §1, §7, §3, §4, §5, §8, §6

[6] = test system: Ambrosia artemisiifolia; assay: Greenhouse pre-emergence (PRE) herbicidal test on AMBEL
Procedure: as §1, §2, §3, §4, §5, §6

[7] = test system: Lolium multiflorum; assay: Greenhouse pre-emergence (PRE) herbicidal test on LOLMU
Procedure: as §1, §2, §3, §4, §5, §6

[8] = test system: Alopecurus myosuroides; assay: Greenhouse pre-emergence (PRE) herbicidal test on ALOMY; details: for % activity: PRE
Procedure: as §1, §2, §3, §4, §5, §6

[9] = test system: Euphorbia heterophylla; assay: Greenhouse pre-emergence (PRE) herbicidal test on EPHHL; details: Euphorbia heterophylla, pre-emergence
Procedure: as §1, §2, §3, §4, §5, §6

[10] = test system: Abutilon theophrasti; assay: Greenhouse post-emergence (POST) herbicidal test on ABUTH
Procedure: as §1, §7, §3, §4, §5, §8, §6

[11] = Digitaria sanguinalis, post-emergence, read-out: % activity
[12] = PRE, use rate 0.25 gai/ha, 20 DAT

`CCNc1nc(Cl)nc(NC(C)C)n1` [Atrazine, atrazine] showed an inhibition at 50 g/ha ([1]; Abutilon theophrasti, pre-emergence, 480 h, PRE, ABUTH, use rate 50 gai/ha, 20 DAT) of 0%, an inhibition at 100 g/ha ([2]; Commelina benghalensis, pre-emergence, 480 h, PRE, COMBE, use rate 100 gai/ha, 20 DAT) of 25% and an inhibition at 50 g/ha ([3]; 480 h, POST, GERPU, use rate 50 gai/ha, 20 DAT) of 30%. For the same compound, the inhibition at 100 g/ha ([3]; 480 h, POST, GERPU, use rate 100 gai/ha, 20 DAT, read-out: % activity) was 75%.
For `CCCCOC(=O)[C@@H](C)Oc1ccc(Oc2ccc(C#N)cc2F)cc1` [Cyhalofop-Butyl, cyhalofop-butyl], the inhibition at 6.25 g/ha [4, 11] was 35%, the inhibition at 25 g/ha [4, 11] was 70% and the inhibition at 6.25 g/ha ([5]; Echinochloa crus-galli, post-emergence, read-out: % activity) was 80%.
In the case of `CCOC(=O)COc1ncccc1Oc1cc(-n2c(=O)cc(C(F)(F)F)n(C)c2=O)c(F)cc1Cl` [Epyrifenacil, epyrifenacil], the “% activity” value ([4]; DIGSA POST, use rate 0.5 gai/ha) is reported as 20%, the “% activity” value ([4]; DIGSA POST, use rate 1 gai/ha) is reported as 55% and the “% activity” value ([5]; ECHCG POST, use rate 1 gai/ha) is reported as 45%.
For `CCOC1Oc2ccc(OS(C)(=O)=O)cc2C1(C)C` (centres unmarked) [Ethofumesate, ethofumesate], the inhibition at 250 g/ha ([6]; Ambrosia artemisiifolia, pre-emergence, 480 h, PRE, use rate 250 gai/ha, 20 DAT) was 0% and the inhibition at 1000 g/ha ([7]; Lolium multiflorum, pre-emergence, 480 h, PRE, use rate 1000 gai/ha, 20 DAT) was 60%.
`CCc1cnc(C2=NC(C)(C(C)C)C(=O)N2)c(C(=O)O)c1` (centres unmarked) [Imazethapyr, imazethapyr] showed an inhibition at […] ([1]; Abutilon theophrasti, pre-emergence, PRE, ABUTH, use rate 7.5 gai/ha, read-out: % activity) of 60%, an inhibition at […] ([6]; Ambrosia artemisiifolia, pre-emergence, PRE, AMBEL, use rate 7.5 gai/ha, read-out: % activity) of 0% and an inhibition at 15 g/ha ([6]; Ambrosia artemisiifolia, pre-emergence, PRE, AMBEL, use rate 15 gai/ha) of 10%. For the same compound, the inhibition at […] ([2]; Commelina benghalensis, pre-emergence, PRE, COMBE, use rate 7.5 gai/ha, read-out: % activity) was 30%, the inhibition at 15 g/ha ([2]; Commelina benghalensis, pre-emergence, PRE, COMBE, use rate 15 gai/ha) was 70% and the inhibition at 15 g/ha ([7]; Lolium multiflorum, pre-emergence, PRE, LOLMU, use rate 15 gai/ha) was 40%.
`CS(=O)(=O)c1cc(C(F)(F)F)ccc1C(=O)c1cnoc1C1CC1` [Isoxaflutole, isoxaflutole] showed an inhibition at 6.3 g/ha ([1]; Abutilon theophrasti, pre-emergence, ABUTH PRE, use rate 6.3 gai/ha) of 45%, an inhibition at 6.3 g/ha ([8]; Alopecurus myosuroides, pre-emergence, ALOMY PRE, use rate 6.3 gai/ha) of 0% and an inhibition at 25 g/ha ([8]; Alopecurus myosuroides, pre-emergence, ALOMY PRE, use rate 25 gai/ha) of 0%. The inhibition at 6.3 g/ha ([6]; Ambrosia artemisiifolia, pre-emergence, AMBEL PRE, use rate 6.3 gai/ha) was 25%, the inhibition at 6.3 g/ha ([9]; EPHHL PRE, use rate 6.3 gai/ha) was 45% and the inhibition at 25 g/ha ([9]; EPHHL PRE, use rate 25 gai/ha) was 75%. For the same compound, the inhibition at 6.3 g/ha ([7]; Lolium multiflorum, pre-emergence, LOLMU PRE, use rate 6.3 gai/ha) was 0%.
For `COC(=O)c1ccc(CNS(C)(=O)=O)cc1S(=O)(=O)NC(=O)Nc1nc(OC)cc(OC)n1` [Mesosulfuron-Methyl, mesosulfuron-methyl], the “% activity” value ([8]; use rate 0.25 gai/ha, 20 DAT) was 0%, the “% activity” value ([8]; use rate 1 gai/ha, 20 DAT) was 10% and the “% activity” value [2, 12] was 35%. The “% activity” value [7, 12] was 0% and the “% activity” value ([7]; PRE, use rate 1 gai/ha, 20 DAT) was 0%.
In the case of `CS(=O)(=O)c1ccc(C(=O)C2C(=O)CCCC2=O)c([N+](=O)[O-])c1` [Mesotrione, mesotrione], the inhibition at 4 g/ha ([2]; Commelina benghalensis, pre-emergence, COMBE PRE, use rate 4 gai/ha) is reported as 25%, the inhibition at 4 g/ha ([9]; EPHHL PRE, use rate 4 gai/ha) is reported as 20% and the inhibition at 16 g/ha ([9]; EPHHL PRE, use rate 16 gai/ha) is reported as 45%.
For `C[C@@H](Oc1ccc(Oc2nc3ccc(Cl)cc3o2)cc1)C(=O)N(C)c1ccccc1F` [Metamifop, metamifop], the “% activity” value ([4]; DIGSA POST, use rate 25 gai/ha) was 85% and the “% activity” value ([5]; ECHCG POST, use rate 6.25 gai/ha) was 50%.
Compound `CSc1nnc(C(C)(C)C)c(=O)n1N` [Metribuzin, metribuzin] has an inhibition at 31.25 g/ha ([2]; Commelina benghalensis, pre-emergence, COMBE PRE, use rate 31.25 gai/ha) of 10%, an inhibition at 62.5 g/ha ([2]; Commelina benghalensis, pre-emergence, COMBE PRE, use rate 62.5 gai/ha) of 20% and an inhibition at 31.25 g/ha ([3]; GERPU POST, use rate 31.25 gai/ha) of 70%.
With `COc1cnc(OC)n2nc(NS(=O)(=O)c3c(OCC(F)F)cccc3C(F)(F)F)nc12` [Penoxsulam, penoxsulam] the inhibition at 4 g/ha ([10]; Abutilon theophrasti, post-emergence, ABUTH POST, use rate 4 gai/ha) was 0%, the inhibition at 2 g/ha ([4]; Digitaria sanguinalis, post-emergence, DIGSA POST, use rate 2 gai/ha, read-out: % activity) was 0% and the inhibition at 4 g/ha ([4]; Digitaria sanguinalis, post-emergence, DIGSA POST, use rate 4 gai/ha) was 10%. The inhibition at 2 g/ha ([5]; Echinochloa crus-galli, post-emergence, ECHCG POST, use rate 2 gai/ha, read-out: % activity) was 10% and the inhibition at 4 g/ha ([5]; Echinochloa crus-galli, post-emergence, ECHCG POST, use rate 4 gai/ha) was 35%.
With `CCCN(CCC)C(=O)SCc1ccccc1` [Prosulfocarb, prosulfocarb] the pest or weed control at 600 g/ha ([1]; Abutilon theophrasti, pre-emergence, 480 h, PRE, ABUTH, Prosulfocarb solo 600 gai/ha, 20 DAT) was 40%, the pest or weed control at 600 g/ha ([6]; Ambrosia artemisiifolia, pre-emergence, 480 h, PRE, AMBEL, Prosulfocarb solo 600 gai/ha, 20 DAT) was 10% and the pest or weed control at 150 g/ha ([9]; 480 h, PRE, EPHHL, Prosulfocarb solo 150 gai/ha, 20 DAT) was 5%. It also gave a pest or weed control at 600 g/ha ([9]; 480 h, PRE, EPHHL, Prosulfocarb solo 600 gai/ha, 20 DAT) of 5%, a pest or weed control at 150 g/ha ([7]; Lolium multiflorum, pre-emergence, 480 h, PRE, LOLMU, Prosulfocarb solo 150 gai/ha, 20 DAT) of 15% and a pest or weed control at 600 g/ha ([7]; Lolium multiflorum, pre-emergence, 480 h, PRE, LOLMU, Prosulfocarb solo 600 gai/ha, 20 DAT) of 20%. The pest or weed control at 600 g/ha ([4]; Digitaria sanguinalis, post-emergence, 480 h, POST, DIGSA, Prosulfocarb solo 600 gai/ha, 20 DAT) was 5% and the pest or weed control at 600 g/ha ([3]; 480 h, POST, GERPU, Prosulfocarb solo 600 gai/ha, 20 DAT) was 20%.
`C#CCN1C(=O)C(F)(F)Oc2cc(F)c(-n3c(=O)n(C)c(=S)n(C)c3=O)cc21` [Trifludimoxazin, trifludimoxazin] was tested, and the “% activity” value ([1]; PRE, ABUTH, use rate 0.5 gai/ha) was 0%, the “% activity” value ([8]; ALOMY, use rate 0.5 gai/ha) was 10% and the “% activity” value ([6]; PRE, AMBEL, use rate 0.5 gai/ha) was 0%. For the same compound, the “% activity” value ([10]; POST, ABUTH, use rate 0.5 gai/ha) was 80% and the “% activity” value ([4]; POST, DIGSA, use rate 1 gai/ha) was 30%.
